Assay results: the NIST ThermoML archive (doi:10.1021/je200806n)

Experiment: xn = mol fraction of the nth substance listed
Conditions: 101.3 kPa, Liquid

CCCCC(C)O (centres undefined) [2-hexanol] + O=C1CCCCC1
Conditions	mass density, 298.15 K [kg/m3]	mass density, 303.15 K [kg/m3]	mass density, 308.15 K [kg/m3]	mass density, 313.15 K [kg/m3]	viscosity, 298.15 K [mPa·s]	viscosity, 303.15 K [mPa·s]	viscosity, 308.15 K [mPa·s]	viscosity, 313.15 K [mPa·s]
x2 = 0	810.14	806.13	802.06	797.96	4.101	3.411	2.819	2.219
x2 = 0.0821	818.43	814.12	809.89	805.91	3.432	2.834	2.278	1.686
x2 = 0.1612	826.61	822.29	818.07	814.07	2.879	2.346	1.823	1.307
x2 = 0.2409	835.25	830.81	826.44	822.41	2.406	1.932	1.453	1.024
x2 = 0.3496	847.88	843.37	838.88	834.71	1.896	1.477	1.122	0.781
x2 = 0.4391	858.93	854.32	849.76	845.48	1.591	1.23	0.949	0.679
x2 = 0.56	874.62	869.92	865.28	860.83	1.359	1.08	0.873	0.655
x2 = 0.649	886.88	882.07	877.39	872.97	1.325	1.082	0.907	0.727
x2 = 0.7391	899.87	895.12	890.41	885.97	1.388	1.173	1.026	0.85
x2 = 0.8492	916.79	912.01	907.19	902.71	1.576	1.4	1.249	1.068
x2 = 0.9395	931.44	926.63	921.93	917.21	1.842	1.662	1.505	1.326

O=C1CCCCC1 [cyclohexanone] + CCCCCC(C)O
x1 = 1
Conditions	mass density [kg/m3]	viscosity [mPa·s]
298.15 K	941.91	2.057
303.15 K	937.24	1.847
308.15 K	932.67	1.694
313.15 K	927.72	1.546

CCCC(C)O (centres undefined) [pentan-2-ol] + O=C1CCCCC1
Conditions	mass density, 298.15 K [kg/m3]	mass density, 303.15 K [kg/m3]	mass density, 308.15 K [kg/m3]	mass density, 313.15 K [kg/m3]	viscosity, 298.15 K [mPa·s]	viscosity, 303.15 K [mPa·s]	viscosity, 308.15 K [mPa·s]	viscosity, 313.15 K [mPa·s]
x2 = 0	805.41	801.21	796.64	792.51	3.499	2.801	2.334	1.993
x2 = 0.0824	815.31	810.99	806.31	801.99	2.631	2.307	1.891	1.596
x2 = 0.1615	825.12	820.69	815.92	811.53	2.178	1.893	1.541	1.285
x2 = 0.2401	835.08	830.58	825.68	821.06	1.822	1.58	1.265	1.056
x2 = 0.3492	849.18	844.64	839.56	834.77	1.465	1.241	1.007	0.838
x2 = 0.4397	861.19	856.51	851.41	846.47	1.277	1.081	0.881	0.75
x2 = 0.5607	877.71	872.97	867.74	862.65	1.191	1.016	0.865	0.771
x2 = 0.6496	890.14	885.41	880.19	875.09	1.23	1.072	0.935	0.848
x2 = 0.7399	903.04	898.27	893.11	888.08	1.354	1.205	1.062	0.982
x2 = 0.8498	919.21	914.43	909.42	904.33	1.597	1.417	1.294	1.194
x2 = 0.9396	932.71	928.12	923.33	917.99	1.855	1.685	1.523	1.388
